# Assay results: US20150018369A1 (priority 2012, published 2015)
# Tests used:
# [1] = test system: DBT tumors; experiment: DBT tumors implanted in BalbC mice; type: in vivo, mouse; conditions: treated daily over 2 weeks
# [2] = test system: CB1; experiment: [3H]-CP55940 binding competition at CB1; set-up: species or system human; conditions: FIG. 2c
# Protocol: Fragments were amplified from total RNA of cell lines by reverse transcriptase-polymerase chain reaction (RT-PCR). Sequence was confirmed and the fragment was cloned into the EcoRI site of the pIRES2-eGFP-express vector. Cells were grown to approximately 80% confluence in 10 cm cell culture dishes, transfected with the cDNA pIRES-eGFP-vector containing the human CB1 or CB2 receptor using LipofectAMINE™ 2000 reagent in the serum-free media Opti-MEM 1 according to the manufacturer's description. Cells were subject to FACS sorting 48 his after transfection and single cell sorted based on dsRed expression into 96-well plates. Of the dsRed expressing positive clones, 3 were validated for CB1 and CB2 protein expression by radioligand binding analysis (methods discussed below).
# Cells were grown to 90% confluence, rinsed twice with 1× PBS and stored at −80° C. until further use. To prepare crude cellular membrane fractions, dishes were removed from −80° C. and thawed at room temperature for 5 min. Once thawed, cells were lysed with ice-cold homogenization buffer (50 mM Tris, 1 mM EDTA, 3 mM MgCl2) and gently scraped from the dish. Total cell lysates from 3-5 dishes were collected on ice in 3 ml of ice-cold homogenization buffer Cells were homogenized at 6,500 rpm (PRO Scientific, Oxford, Conn.) twice for 10 sec and centrifuged at 11,500 rpm for 20 min at 4° C. […]
# [3] = test system: T98 g cells; experiment: Cell viability assay (WST-1), SAR of AI compounds at inducing cell death; type: cell-based, human; conditions: Homo sapiens, T98G, 72 h
# Protocol: Cells were plated media supplemented with 10% serum in 96-well plates (10^4 cells per wellI; 0.1 ml per well). Once they reached ˜70% confluence, they were rinsed with PBS and kept for an additional 24 his in media supplemented with 1% serum, at which time drugs or vehicle (DMSO, 0.1%, prepared in 10 μl serum-free media) were directly added to each well. After 3 days, cell viability was assessed using the Cell Proliferation Reagent WST-1 (Roche, Indianapolis, Ind.). Briefly, WST-1 reagent (10 μl) was added to each well for 3 hrs at 37° C. with 5% CO2 and WST-1 products were read at 450 nm using Packard SpectraCount™.
# Because the strongest toxic effect of WIN55212-2 (ST-1) was measured in T98 g cells, these cells are used as readout to study the structure activity relationship (SAR) of AI compounds at inducing cell death. Table 2 provides the chemical structure, potency and efficacy of several AI compounds.
# [4] = test system: mouse microglia in primary culture; experiment: Microglia cell migration; type: cell-based
# [5] = test system: AI receptors; experiment: GTPγS binding in HEK293 cell homogenates; type: biochemical, human
# Source text: When comparing the overall amino acid sequence of GPR124 to that of CB1 and CB2 receptors no significant homology was found. However, when focusing the comparison to the amino acid sequence encoding for the third transmembrane domains of GPR124 and CB2 receptors, 84% homology was found (FIG. 5a). […] Therefore, it is likely that ST-1, ST-11, and other AI compounds interact directly with the third transmembrane domain of GPR124. To determine the signaling mechanism of AI receptors, effect of ST-11 in HEX293 cells, which express GPR124 endogenously and commonly used to study GPCR pharmacology and signaling pathway, was tested.
# [6] = test system: mouse microglia in primary culture; experiment: Cell viability in mouse microglia; type: cell-based
smiles,measurement,setting,value
CCn1c(C)c(C(=O)c2ccc(C)c3ccccc23)c2ccccc21 [ST-11],number of lymphocytes in DBT tumors,[1],increases the number of lymphocytes
same,number of microglia in DBT tumors,[1],increases
same,competition for [3H]-CP55940 binding at CB1,[2],but not for [^3H]-CP55940 binding
same,EC50,[3],1300 nM
same,microglia cell migration stimulated by ATP,[4],inhibits
same,GTPγS binding,[5],activation of GTP[…]S binding
same,cell viability in microglia,[6],does not
